According to PubChem BioAssay (NCI):
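In this assay, cells in 96-well plates receive the compound at five concentrations for 48 hours. Endpoints are linearly interpolated between the surrounding concentrations. GI50 is the concentration that inhibits growth by half. The concentration for full growth arrest is given as TGI.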

Key:
Experiment in all cases: NCI tumour cell line growth inhibition, 48 h
NCI-H23 lung = test system: NCI-H23 lung
U251 CNS = test system: U251 CNS
NCI/ADR-RES ovarian = test system: NCI/ADR-RES ovarian
SN12C renal = test system: SN12C renal
TK-10 renal = test system: TK-10 renal
A498 renal = test system: A498 renal
NCI-H460 lung = test system: NCI-H460 lung
MDA-MB-231 breast = test system: MDA-MB-231 breast
OVCAR-3 ovarian = test system: OVCAR-3 ovarian
NCI-H522 lung = test system: NCI-H522 lung

COc1ccc(-c2cc(-c3ccc(Cl)cc3)c(C#N)c(=O)n2CCCCC(=O)Nc2ccccc2N)cc1
GI50 (NCI-H23 lung): 12.7 µM
TGI (NCI-H23 lung): 55.3 µM
GI50 (U251 CNS): 7.97 µM
TGI (U251 CNS): > 100 µM
GI50 (NCI/ADR-RES ovarian): 4.09 µM
TGI (NCI/ADR-RES ovarian): > 100 µM
GI50 (SN12C renal): 9.32 µM
TGI (SN12C renal): > 100 µM
GI50 (TK-10 renal): 27.9 µM
TGI (TK-10 renal): > 100 µM
GI50 (A498 renal): 1.79 µM
TGI (A498 renal): 48.9 µM
GI50 (NCI-H460 lung): 4.26 µM
TGI (NCI-H460 lung): 56.6 µM
GI50 (MDA-MB-231 breast): 7.86 µM
TGI (MDA-MB-231 breast): > 100 µM
GI50 (OVCAR-3 ovarian): 13.5 µM
TGI (OVCAR-3 ovarian): 56.6 µM
GI50 (NCI-H522 lung): 7.04 µM
TGI (NCI-H522 lung): 57.1 µM

CNC(=O)Nc1ccc(-c2nc(N3CCOCC3)nc3c2cnn3C2CCOCC2)cc1
GI50 (NCI-H23 lung): 0.267 µM
TGI (NCI-H23 lung): > 100 µM
GI50 (U251 CNS): 0.258 µM
TGI (U251 CNS): > 38.6 µM
GI50 (NCI/ADR-RES ovarian): 0.511 µM
TGI (NCI/ADR-RES ovarian): > 22.5 µM
GI50 (SN12C renal): 0.213 µM
TGI (SN12C renal): > 100 µM
GI50 (TK-10 renal): 0.172 µM
TGI (TK-10 renal): 1.47 µM
GI50 (A498 renal): < 0.0218 µM
TGI (A498 renal): 0.148 µM
GI50 (NCI-H460 lung): 0.131 µM
TGI (NCI-H460 lung): > 100 µM
GI50 (MDA-MB-231 breast): 0.292 µM
TGI (MDA-MB-231 breast): > 51.9 µM
GI50 (OVCAR-3 ovarian): 0.21 µM
GI50 (NCI-H522 lung): 0.43 µM
TGI (NCI-H522 lung): > 100 µM

Cc1ccc(C(=O)/C(=C/c2ccc([N+](=O)[O-])cc2)S(=O)Cc2ccccc2)cc1 (centres undefined)
GI50 (NCI-H23 lung): 1.86 µM
TGI (NCI-H23 lung): 5.25 µM
GI50 (U251 CNS): 1.02 µM
TGI (U251 CNS): 2.24 µM
GI50 (NCI/ADR-RES ovarian): 2.46 µM
TGI (NCI/ADR-RES ovarian): > 100 µM
GI50 (SN12C renal): 1.71 µM
TGI (SN12C renal): 3.4 µM
GI50 (TK-10 renal): 1.78 µM
TGI (TK-10 renal): 3.26 µM
GI50 (A498 renal): 1.75 µM
TGI (A498 renal): 3.4 µM
GI50 (NCI-H460 lung): 1.83 µM
TGI (NCI-H460 lung): 4.92 µM
GI50 (MDA-MB-231 breast): 1.19 µM
TGI (MDA-MB-231 breast): 2.77 µM
GI50 (OVCAR-3 ovarian): 1.28 µM
TGI (OVCAR-3 ovarian): 2.57 µM
GI50 (NCI-H522 lung): 1.46 µM
TGI (NCI-H522 lung): 2.9 µM

CSc1ccc(C2=Nn3c(nnc3-c3ccc(F)c(Cl)c3)SC2)cc1
GI50 (NCI-H23 lung): 37.4 µM
TGI (NCI-H23 lung): > 100 µM
GI50 (U251 CNS): 3.85 µM
TGI (U251 CNS): 13.8 µM
GI50 (NCI/ADR-RES ovarian): 5.17 µM
TGI (NCI/ADR-RES ovarian): 22.6 µM
GI50 (SN12C renal): 2.67 µM
TGI (SN12C renal): 9.78 µM
GI50 (TK-10 renal): 7.52 µM
TGI (TK-10 renal): 21.2 µM
GI50 (A498 renal): 10 µM
TGI (A498 renal): 30.2 µM
GI50 (NCI-H460 lung): 14.6 µM
TGI (NCI-H460 lung): 38.6 µM
GI50 (MDA-MB-231 breast): 4.12 µM
TGI (MDA-MB-231 breast): 21 µM
GI50 (OVCAR-3 ovarian): 5.62 µM
TGI (OVCAR-3 ovarian): 21 µM
GI50 (NCI-H522 lung): 4.38 µM
TGI (NCI-H522 lung): 21.4 µM

CCN(CC)c1ccc(NC(=S)NN(C)C)cc1
TGI (NCI-H23 lung): > 10 µM
TGI (U251 CNS): > 10 µM
TGI (NCI/ADR-RES ovarian): > 10 µM
TGI (SN12C renal): > 10 µM
TGI (TK-10 renal): > 10 µM
TGI (A498 renal): > 10 µM
TGI (NCI-H460 lung): > 10 µM
TGI (MDA-MB-231 breast): > 10 µM
TGI (OVCAR-3 ovarian): > 10 µM
TGI (NCI-H522 lung): > 10 µM
